Measured values as given in article PMC4376459, “CXCR3 antagonist VUF10085 binds to an intrahelical site distinct from that of the broad spectrum antagonist TAK-779” (British Journal of Pharmacology, 2015).
Numbering of substitutions follows the chain as printed.

What was measured:
Assay in all cases: Chemotaxis assay, L1.2 transfectants migrating to CXCL11
Format in all cases: cell-based
CXCR3 F131A = target: T1, CXCR3 F131A (Homo sapiens, UniProt P49682, F131A)
T1 construct: expressed in transfected cells; host or cells: murine pre-B cell line L1.2, transient transfection
T1 sequence (P49682 1-368 F131A): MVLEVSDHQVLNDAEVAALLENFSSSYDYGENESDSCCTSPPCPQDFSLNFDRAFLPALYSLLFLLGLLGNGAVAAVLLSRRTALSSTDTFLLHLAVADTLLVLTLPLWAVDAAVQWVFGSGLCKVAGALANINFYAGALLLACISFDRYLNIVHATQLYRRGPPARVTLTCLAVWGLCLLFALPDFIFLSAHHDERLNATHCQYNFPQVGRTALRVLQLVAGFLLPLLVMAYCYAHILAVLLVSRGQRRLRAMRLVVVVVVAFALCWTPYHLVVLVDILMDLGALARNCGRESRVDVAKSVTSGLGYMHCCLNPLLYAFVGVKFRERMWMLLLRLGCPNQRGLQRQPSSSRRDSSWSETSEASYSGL

CXCR3 I279A = target: T2, CXCR3 I279A (Homo sapiens, UniProt P49682, I279A)
T2 construct: expressed in transfected cells; host or cells: murine pre-B cell line L1.2, transient transfection
T2 sequence (P49682 1-368 I279A): T1 sequence (P49682 1-368 F131A) with A131F, I279A

WT CXCR3 = target: T3, WT CXCR3 (Homo sapiens, UniProt P49682)
T3 construct: expressed in transfected cells; host or cells: murine pre-B cell line L1.2, transient transfection by electroporation
T3 sequence (P49682 1-368): T1 sequence (P49682 1-368 F131A) with A131F

CXCR3 H202A (ECL2) = target: T4, CXCR3 H202A (ECL2) (Homo sapiens, UniProt P49682, H202A)
T4 construct: expressed in transfected cells; host or cells: murine pre-B cell line L1.2, transient transfection
T4 sequence (P49682 1-368 H202A): T1 sequence (P49682 1-368 F131A) with A131F, H202A

CXCR3 Y60A = target: T5, CXCR3 Y60A (Homo sapiens, UniProt P49682, Y60A)
T5 construct: expressed in transfected cells; host or cells: murine pre-B cell line L1.2, transient transfection
T5 sequence (P49682 1-368 Y60A): T1 sequence (P49682 1-368 F131A) with Y60A, A131F

[1] = 30 nM CXCL11, read-out: IC50 chemotaxis (mean ± SEM)

Molecule | IC50 (CXCR3 F131A; [1]) [µM] | IC50 (CXCR3 I279A; [1]) [µM] | IC50 (WT CXCR3; WT CXCR3, 30 nM CXCL11, read-out: IC50 chemotaxis (mean ± SEM)) [µM] | IC50 (CXCR3 H202A (ECL2); H202A (ECL2), 30 nM CXCL11, read-out: IC50 chemotaxis (mean ± SEM)) [µM] | increase in IC50 value, chemotaxis (CXCR3 H202A (ECL2); H202A versus WT, 30 nM CXCL11) | IC50 (CXCR3 Y60A; [1]) [µM] | % of WT chemotaxis to 30 nM CXCL11 (mean ± SEM) (CXCR3 F131A) [%] | % of WT chemotaxis to 30 nM CXCL11 (mean ± SEM) (CXCR3 I279A) [%] | optimum concentration of bell-shaped chemotaxis response (WT CXCR3; WT CXCR3) [nM] | % of WT chemotaxis to 30 nM CXCL11 (mean ± SEM) (WT CXCR3; WT CXCR3, 30 nM CXCL11) [%] | % of WT chemotaxis to 30 nM CXCL11 (mean ± SEM) (CXCR3 H202A (ECL2); H202A) [%] | % of WT chemotaxis to 30 nM CXCL11 (mean ± SEM) (CXCR3 Y60A) [%]
Cc1ccc(-c2ccc3c(c2)C=C(C(=O)Nc2ccc(C[N+](C)(C)C4CCOCC4)cc2)CCC3)cc1.[Cl-] [TAK-779, N,N-dimethyl-N-[4-[[[2-(4-methylphenyl)-6,7-dihydro-5H-benzocyclohepten-8-yl]-carbonyl]amino]benzyl] tetrahydro-2H-pyran-4-aminium chloride] | 15 ± 6.98 | 10.5 ± 3.35 | 15.8 ± 3.1 | 32.7 ± 14 | twofold | 10.2 ± 4.62 | – | – | – | – | – | –
CXCL11: recombinant human chemokine, CXCR3 agonist, purchased from PeproTech | – | – | – | – | – | – | 53.7 ± 5.6 | 51.3 ± 6.2 | 30 | 100 ± 4.32 | 66.0 ± 34.8 | 55.4 ± 16.4
